Results on 2 molecules are retold here after article PMC9440176, “Novel benzylidene benzofuranone analogues as potential anticancer agents: design, synthesis and in vitro evaluation based on CDK2 inhibition assays” (3 Biotech, 2022).

Molecules are shown by their SMILES.

One assay relates to HCT 116 cell lines. Nature of the assay: Cell cycle analysis (PI, FACS). To be noted: standard at 25 μM. The assay is classed as cell-based, Human. How it is done:
The cell cycle analysis was followed where 1 × 10^6 cells were seeded and cultured for 24 h in a 6-well plate containing 2 ml of the media. Cells were then treated with desired concentrations of the given samples that were prepared in media and further incubated for another 24 h. Cells were then harvested and centrifuged at 2000 rpm for 5 min at room temperature and the supernatant was discarded carefully retaining the cell pellet. Cell pellet was then washed by resuspending in 2 ml of 1XPBS. The washing was repeated another time under the same conditions. Further, the supernatant was discarded retaining the pellet. Cells were then fixed by resuspending in 300 µL of Sheath fluid followed by the addition of 1 ml of chilled 70% ethanol drop by drop gently with continuous shaking and one more mL of the same at once. The cells were then stored at 4 °C overnight. Post fixing, the cells were centrifuged at 2000 rpm for 5 min washed twice with 2 ml of cold 1XPBS and suspended in 450 µL of sheath fluid containing 0.05 mg/ml PI (Propidium iodide), 0.05 mg/ml RNase A and incubated for 15 min in the dark (Kasibhatla et al. [2006]).The percentage of cells in various stages of cell cycle both in the treated as well as un-treated populations was determined using FACS Caliber (BD Biosciences, San Jose, CA).

The next assay relates to HCT 116. Nature of the assay: MTT cytotoxicity assay on HCT 116. The assay is classed as cell-based, Human. To be noted: Homo sapiens, HCT-116, 24 h, read-out: Inhibition of cell proliferation, IC50, HCT 116. As to the method:
(§1) The monolayer cell culture was trypsinized and the cell count was adjusted to 5.0 × 10^5 cells/ml using respective media containing 10% FBS. To each well of the 96-well microtiter plate, 100 µL of the diluted cell suspension (50,000cells/well) was added. After 24 h, when a partial monolayer was formed, the supernatant was flicked off, the monolayer was then washed once again with the medium and 100 µL of different test concentrations of test drugs were added on to the partial monolayer in microtiter plates. The plates were then incubated at 37 °C for 24 h in 5% CO2 atmosphere. After incubation, the test solutions in the wells were discarded and 100 µL of MTT (5 mg/10 ml of MTT in PBS) was added to each well. The plates were then incubated for 4 h at 37 °C in 5% CO2 atmosphere. The supernatant was then removed and 100 µL of DMSO was added and the plates were gently shaken to solubilize the formed formazan. The absorbance was measured using a microtiter plate reader at a wavelength of 590 nm. The percentage growth inhibition was thus calculated using the following formula and the concentration of the test drug required to inhibit the cell growth by 50% (IC50) values is generated from the dose–response curves for each one of the cell lines (Meerloo et al. [2011]).
(§2) The test compounds were screened for their in vitro cytotoxicity by MTT assay against two cancer cell lines, namely MCF-7, HCT-116 and normal epithelial kidney cells (Vero). Doxorubicin was used as a reference standard.
In general terms: Tetrazolium assays rely on reduction of a dye to a coloured formazan, in cell work by metabolically active cells.

In assay [1] the test system is MCF-7 and HCT 116 cell lines. Nature of the assay: MTT cytotoxicity, IC50 range stated over MCF-7 and HCT 116. The assay is classed as cell-based. To be noted: range over both cell lines; read-out: Cytotoxic activity IC50 range against MCF 7 and HCT 116. As to the method:
as §1, with “[2011]). […]” for “[2011]).”

The nature of assay [2]: ABTS.+ radical scavenging assay. How it is done:
The assay was performed in a 96-well plate by serial dilution method. A 2 mM ABTS^.+ working solution was prepared in a phosphate buffer (Zheleva-Dimitrova et al [2010]).To this, 200 μL of aqueous potassium per sulfate (70 mM) solution was added and the solution was incubated for 24 h in the dark at room temperature to develop a blue-green color. To 30 μL of ABTS^.+ working solution, 50 μL of different concentrations (3.9–1000 μM) of the test sample solution and 170 μL of phosphate buffer (pH-7.4) were added in a well. The plate was then incubated in the dark at room temperature for 10 min. Then absorbance was measured at 690 nm using Elisa reader. Quercetin and ascorbic acid were used as standards. The percentage scavenging of ABTS^.+ was calculated using the formula, (Control Absorbance–Test Absorbance)*100/(Control Absorbance) and the anti-oxidant activity was expressed in terms of IC50 value.

The next assay deals with CDK2/Cyclin A (Homo sapiens, UniProt P24941). Nature of the assay: CDK2/cyclin A inhibitory assay, Z'-LYTE FRET kinase assay. The assay is classed as biochemical. To be noted: concentration of 100 micro molar; 1000 ng/ml kinase, 1000 µM ATP. An excerpt:
Z’-LYTE® technology involves homogeneous assay design based on FRET and is a universal platform for both screening as well as profiling protein kinases. The assay uses a peptide substrate labeled with two different fluorophores, coumarin donor and fluorescein acceptor on each end. These two fluorophores make up a FRET pair, which allows the transfer of energy when both are present on the same molecule. The initial kinase reaction transfers the ϒ-phosphate of ATP to a tyrosine or serine/threonine residue on the substrate. In a secondary reaction, referred to as the development reaction, a site-specific protease recognizes and cleaves only non-phosphorylated peptide, while phosphorylated substrate remains uncleaved. […] Upon excitation of Coumarin at 400 nm, the FRET signal is measured as a ratio between the Coumarin donor emission at 445–460 nm and the fluorescein acceptor emission at 520–535 nm(Lebakken et al. [2007]).
Initial ten-fold and two-fold dilutions of Kinase and ATP concentrations were used to choose the optimal Kinase and ATP concentration based on the % Phosphorylation.
The assay was carried out according to the kit instructions (384 well format). Briefly, 5X kinase buffer [250 mM HEPES (pH 7.5), 50 mM MgCl2, 5 mM EGTA, 0.05% BRIJ-35] was diluted to 1X using distilled water. The phosphor peptide positive control (Z’-LYTE® Tyr 4 phospho-peptide) and the non-phosphorylated negative control (Z’-LYTE® Tyr 4 peptide) were then diluted to 1:500 with 1× kinase buffer to 2 μM. […] Working development solution was then made by diluting 12 μL of the provided stock solution with 388 μL of the provided development buffer. Aliquots (20 μL) of each peptide mixture were then added to the wells of a Corning 3914 solid white microplate in replicates of 8. The development reaction was initiated by the addition of 10 μL of working development-solution to all the wells. Further, the plates were allowed to incubate at room temperature for 60 min. Reactions were then stopped by the addition of 10 μL of stop solution (Jia et al. [2008]).
Reactions were quantitated using a Tecan Robotic Microplate Reader. Reader control, blank subtraction, ratio metric calculations and finally graph plotting were carried out using Gen5™ Data Analysis Software.
The CDK2/Cyclin A assay was carried out as per the manufacturer’s instruction using suitable controls and standard.
The inhibitory assay was carried out using the stock of 10 mM in DMSO. Samples were further serially diluted to obtain concentrations of 100 μM. The concentrations were chosen based on the IC50 values obtained in the MTT assay. A total of 23 analogues were selected for the assay based on their antiproliferative activity. Further, selected compounds were screened and tested against the target CDK2/Cyclin A, and their % phosphorylation and % inhibition were recorded.

Assay [3] relates to normal epithelial kidney cells (Vero). Nature of the assay: MTT cytotoxicity assay on Vero. The assay is classed as cell-based. To be noted: Chlorocebus sabaeus, Vero, 24 h, read-out: Inhibition of cell proliferation, IC50, Vero. As to the method:
as §1, §2

Assay [4] in a line: DPPH. free radical scavenging assay. How it is done: DPPH. assay was performed using 96-well plate by serial dilution method. The dilution of methanolic stock solution of the test compounds and standard anti-oxidants was carried out to obtain concentration in the range of 3.9–1000 µM. Quercetin and ascorbic acid were used as standards. To a 100 μL of this solution, 100 μL of 200 µM DPPH^. in methanolic solution was added. The experiment was done in triplicate and the plate was then incubated for 30 min in the dark and later the absorbance was measured at 517 nm using Elisa reader. The percentage DPPH^. Scavenging was calculated using the formula, (Control Absorbance–Test Absorbance)*100/(Control Absorbance). The anti-oxidant activity of the test compounds was expressed in terms of concentration required for 50 percentage inhibition (IC50) (Collins [2005]).
(In general: The DPPH test is a chemical assay of radical scavenging.)

Another assay has as its system MCF-7. The assay is described as follows: MTT cytotoxicity assay on MCF-7. To be noted: Homo sapiens, MCF7, 24 h, read-out: Inhibition of cell proliferation, IC50, MCF-7. The assay is classed as cell-based. As to the method:
as §1, §2

Turning to `COc1cc2c(c(OC)c1OC)-c1ccc(OC)c(=O)cc1[C@@H](NC(C)=O)CC2` [Colchicine, reference compound], in the assay on HCT 116 cell lines, the “percentage cell population G2/M phase” value was 43.78, the “percentage cell population GO/G1 phase” value is reported as 47.39 and the “percentage cell population S phase” value was found to be 8.61.

Take `COc1cc(OC)c(C2=CCN(C)CC2)c2c1C(=O)/C(=C/c1ccccc1Br)O2` [NMA2]: the IC50 in the assay with HCT 116 is 34.9 µM; in assay [1], 21.2 to 44 µM; in assay [2], 66.5 ± 2.02 µM; in assay [3], 154 µM; in assay [4], 83.2 ± 6.42 µM; with MCF-7, 26.8 µM. Also, the “% inhibition on CDK2/cyclin A” value at CDK2/Cyclin A is 35.350%.
